System: platelets
Experiment: Platelet quality, apheresis platelets in 100% plasma, 15 μM S-59, INT-100 (~3.6 J/cm^2) or 340 nm LED 1x/2x/3x (~3.6/7.2/10.8 J/cm^2)
Format: cell-based
Source text: Additional units were illuminated with the INT-100 device at ˜3.6 J/cm^2 for comparison or maintained as an untreated control. […] As shown in the following Tables 11-19, for platelet quality parameters, results were generally similar among the controls and INT-100 and 340 nm test samples, except for the 3×340 nm dosage for certain parameters.

Compound: Cc1oc2c(C)c3oc(=O)cc(C)c3cc2c1COCCN [S-59, 3-(2-aminoethoxymethyl)-2,5,9-trimethylfuro[3,2-g]chromen-7-one]
- Adenosine triphosphate (ATP) (340 nm (1x), D3): 4.4 mmole/10^8 platelets
- Glucose (340 nm (1x), D3): 13.49 mmol/L
- LDH (340 nm (1x), D3): 12.1 LDH IU/10^11 platelets
- Lactate (340 nm (1x), D3): 15.17 mmol/L
- Platelet counts (340 nm (1x), D3): 1391 ×10^3 cells/μL
- Platelet lysis (340 nm (1x), D3): 4.90%
- pCO2 at 37° C. (340 nm (1x), D3): 54.4 mmHg
- pH at 37° C. (340 nm (1x), D3): 6.84
- pO2 at 37° C. (340 nm (1x), D3): 11.8 mmHg
- Adenosine triphosphate (ATP) (340 nm (1x), D5): 4.0 mmole/10^8 platelets
- Glucose (340 nm (1x), D5): 10.27 mmol/L
- LDH (340 nm (1x), D5): 12.1 LDH IU/10^11 platelets
- Lactate (340 nm (1x), D5): 19.81 mmol/L
- Platelet counts (340 nm (1x), D5): 1338 ×10^3 cells/μL
- Platelet lysis (340 nm (1x), D5): 4.43%
- pCO2 at 37° C. (340 nm (1x), D5): 35.7 mmHg
- pH at 37° C. (340 nm (1x), D5): 6.70
- pO2 at 37° C. (340 nm (1x), D5): 22.5 mmHg
- Adenosine triphosphate (ATP) (340 nm (1x), D7): 3.7 mmole/10^8 platelets
- Glucose (340 nm (1x), D7): 8.32 mmol/L
- LDH (340 nm (1x), D7): 13.1 LDH IU/10^11 platelets
- Lactate (340 nm (1x), D7): 21.83 mmol/L
- Platelet counts (340 nm (1x), D7): 1391 ×10^3 cells/μL
- Platelet lysis (340 nm (1x), D7): 5.23%
- pCO2 at 37° C. (340 nm (1x), D7): 34.3 mmHg
- pH at 37° C. (340 nm (1x), D7): 6.58
- pO2 at 37° C. (340 nm (1x), D7): 16.6 mmHg
- Glucose (340 nm (1x), Post-UVA): 17.45 mmol/L
- LDH (340 nm (1x), Post-UVA): 11.3 LDH IU/10^11 platelets
- Lactate (340 nm (1x), Post-UVA): 9.05 mmol/L
- Platelet counts (340 nm (1x), Post-UVA): 1366 ×10^3 cells/μL
- Platelet lysis (340 nm (1x), Post-UVA): 4.48%
- pCO2 at 37° C. (340 nm (1x), Post-UVA): 91.9 mmHg
- pH at 37° C. (340 nm (1x), Post-UVA): 6.89
- pO2 at 37° C. (340 nm (1x), Post-UVA): 14.3 mmHg
- Adenosine triphosphate (ATP) (340 nm (1x), Pre-UVA): 4.0 mmole/10^8 platelets
- LDH (340 nm (1x), Pre-UVA): 10.5 LDH IU/10^11 platelets
- Platelet counts (340 nm (1x), Pre-UVA): 1453 ×10^3 cells/μL
- Platelet lysis (340 nm (1x), Pre-UVA): 4.30%
- pCO2 at 37° C. (340 nm (1x), Pre-UVA): 89.6 mmHg
- pH at 37° C. (340 nm (1x), Pre-UVA): 6.90
- pO2 at 37° C. (340 nm (1x), Pre-UVA): 41.8 mmHg
- Adenosine triphosphate (ATP) (340 nm (2x), D3): 4.4 mmole/10^8 platelets
- Glucose (340 nm (2x), D3): 13.63 mmol/L
- LDH (340 nm (2x), D3): 12.1 LDH IU/10^11 platelets
- Lactate (340 nm (2x), D3): 14.55 mmol/L
- Platelet counts (340 nm (2x), D3): 1317 ×10^3 cells/μL
- Platelet lysis (340 nm (2x), D3): 4.59%
- pCO2 at 37° C. (340 nm (2x), D3): 54.5 mmHg
- pH at 37° C. (340 nm (2x), D3): 6.86
- pO2 at 37° C. (340 nm (2x), D3): 14.8 mmHg
- Adenosine triphosphate (ATP) (340 nm (2x), D5): 4.1 mmole/10^8 platelets
- Glucose (340 nm (2x), D5): 10.69 mmol/L
- LDH (340 nm (2x), D5): 13.0 LDH IU/10^11 platelets
- Lactate (340 nm (2x), D5): 19.06 mmol/L
- Platelet counts (340 nm (2x), D5): 1370 ×10^3 cells/μL
- Platelet lysis (340 nm (2x), D5): 4.92%
- pCO2 at 37° C. (340 nm (2x), D5): 37.5 mmHg
- pH at 37° C. (340 nm (2x), D5): 6.72
- pO2 at 37° C. (340 nm (2x), D5): 15.3 mmHg
- Adenosine triphosphate (ATP) (340 nm (2x), D7): 3.7 mmole/10^8 platelets
- Glucose (340 nm (2x), D7): 8.34 mmol/L
- LDH (340 nm (2x), D7): 13.2 LDH IU/10^11 platelets
- Lactate (340 nm (2x), D7): 22.13 mmol/L
- Platelet counts (340 nm (2x), D7): 1376 ×10^3 cells/μL
- Platelet lysis (340 nm (2x), D7): 5.19%
- pCO2 at 37° C. (340 nm (2x), D7): 36.4 mmHg
- pH at 37° C. (340 nm (2x), D7): 6.56
- pO2 at 37° C. (340 nm (2x), D7): 14.1 mmHg
- Glucose (340 nm (2x), Post-UVA): 16.98 mmol/L
- LDH (340 nm (2x), Post-UVA): 12.1 LDH IU/10^11 platelets
- Lactate (340 nm (2x), Post-UVA): 8.77 mmol/L
- Platelet counts (340 nm (2x), Post-UVA): 1301 ×10^3 cells/μL
- Platelet lysis (340 nm (2x), Post-UVA): 4.50%
- pCO2 at 37° C. (340 nm (2x), Post-UVA): 94.1 mmHg
- pH at 37° C. (340 nm (2x), Post-UVA): 6.89
- pO2 at 37° C. (340 nm (2x), Post-UVA): 14.2 mmHg
- Adenosine triphosphate (ATP) (340 nm (2x), Pre-UVA): 3.9 mmole/10^8 platelets
- LDH (340 nm (2x), Pre-UVA): 10.5 LDH IU/10^11 platelets
- Platelet counts (340 nm (2x), Pre-UVA): 1448 ×10^3 cells/μL
- Platelet lysis (340 nm (2x), Pre-UVA): 4.30%
- pCO2 at 37° C. (340 nm (2x), Pre-UVA): 88.5 mmHg
- pH at 37° C. (340 nm (2x), Pre-UVA): 6.90
- pO2 at 37° C. (340 nm (2x), Pre-UVA): 45.9 mmHg
- Adenosine triphosphate (ATP) (340 nm (3x), D3): 3.8 mmole/10^8 platelets
- Glucose (340 nm (3x), D3): 10.87 mmol/L
- LDH (340 nm (3x), D3): 11.6 LDH IU/10^11 platelets
- Lactate (340 nm (3x), D3): 20.42 mmol/L
- Platelet counts (340 nm (3x), D3): 1372 ×10^3 cells/μL
- Platelet lysis (340 nm (3x), D3): 4.78%
- pCO2 at 37° C. (340 nm (3x), D3): 62.5 mmHg
- pH at 37° C. (340 nm (3x), D3): 6.56
- pO2 at 37° C. (340 nm (3x), D3): 27.7 mmHg
- Adenosine triphosphate (ATP) (340 nm (3x), D5): 0.4 mmole/10^8 platelets
- Glucose (340 nm (3x), D5): 1.33 mmol/L
- LDH (340 nm (3x), D5): 16.0 LDH IU/10^11 platelets
- Lactate (340 nm (3x), D5): 36.09 mmol/L
- Platelet counts (340 nm (3x), D5): 1550 ×10^3 cells/μL
- Platelet lysis (340 nm (3x), D5): 6.62%
- pCO2 at 37° C. (340 nm (3x), D5): 13.9 mmHg
- pH at 37° C. (340 nm (3x), D5): 5.57
- pO2 at 37° C. (340 nm (3x), D5): 159.5 mmHg
- Adenosine triphosphate (ATP) (340 nm (3x), D7): −0.1 mmole/10^8 platelets
- Glucose (340 nm (3x), D7): 0.43 mmol/L
- LDH (340 nm (3x), D7): 33.7 LDH IU/10^11 platelets
- Lactate (340 nm (3x), D7): 36.36 mmol/L
- Platelet counts (340 nm (3x), D7): 1474 ×10^3 cells/μL
- Platelet lysis (340 nm (3x), D7): 16.6%
- pCO2 at 37° C. (340 nm (3x), D7): 4.4 mmHg
- pH at 37° C. (340 nm (3x), D7): 5.49
- pO2 at 37° C. (340 nm (3x), D7): 178.6 mmHg
- Glucose (340 nm (3x), Post-UVA): 16.77 mmol/L
- LDH (340 nm (3x), Post-UVA): 12.1 LDH IU/10^11 platelets
- Lactate (340 nm (3x), Post-UVA): 9.48 mmol/L
- Platelet counts (340 nm (3x), Post-UVA): 1322 ×10^3 cells/μL
- Platelet lysis (340 nm (3x), Post-UVA): 4.77%
- pCO2 at 37° C. (340 nm (3x), Post-UVA): 98.1 mmHg
- pH at 37° C. (340 nm (3x), Post-UVA): 6.87
- pO2 at 37° C. (340 nm (3x), Post-UVA): 19.7 mmHg
- Adenosine triphosphate (ATP) (340 nm (3x), Pre-UVA): 3.6 mmole/10^8 platelets
- LDH (340 nm (3x), Pre-UVA): 10.5 LDH IU/10^11 platelets
- Platelet counts (340 nm (3x), Pre-UVA): 1452 ×10^3 cells/μL
- Platelet lysis (340 nm (3x), Pre-UVA): 4.30%
- pCO2 at 37° C. (340 nm (3x), Pre-UVA): 98.2 mmHg
- pH at 37° C. (340 nm (3x), Pre-UVA): 6.87
- pO2 at 37° C. (340 nm (3x), Pre-UVA): 90.9 mmHg
- Adenosine triphosphate (ATP) (INT-100, D3): 4.3 mmole/10^8 platelets
- Glucose (INT-100, D3): 13.11 mmol/L
- LDH (INT-100, D3): 11.9 LDH IU/10^11 platelets
- Lactate (INT-100, D3): 14.71 mmol/L
- Platelet counts (INT-100, D3): 1395 ×10^3 cells/μL
- Platelet lysis (INT-100, D3): 4.69%
- pCO2 at 37° C. (INT-100, D3): 55.8 mmHg
- pH at 37° C. (INT-100, D3): 6.82
- pO2 at 37° C. (INT-100, D3): 18.9 mmHg
- Adenosine triphosphate (ATP) (INT-100, D5): 4.0 mmole/10^8 platelets
- Glucose (INT-100, D5): 10.26 mmol/L
- LDH (INT-100, D5): 11.6 LDH IU/10^11 platelets
- Lactate (INT-100, D5): 20.18 mmol/L
- Platelet counts (INT-100, D5): 1400 ×10^3 cells/μL
- Platelet lysis (INT-100, D5): 4.50%
- pCO2 at 37° C. (INT-100, D5): 36.4 mmHg
- pH at 37° C. (INT-100, D5): 6.67
- pO2 at 37° C. (INT-100, D5): 20.1 mmHg
- Adenosine triphosphate (ATP) (INT-100, D7): 3.5 mmole/10^8 platelets
- Glucose (INT-100, D7): 8.19 mmol/L
- LDH (INT-100, D7): 12.6 LDH IU/10^11 platelets
- Lactate (INT-100, D7): 23.31 mmol/L
- Platelet counts (INT-100, D7): 1439 ×10^3 cells/μL
- Platelet lysis (INT-100, D7): 5.18%
- pCO2 at 37° C. (INT-100, D7): 35.0 mmHg
- pH at 37° C. (INT-100, D7): 6.54
- pO2 at 37° C. (INT-100, D7): 19.7 mmHg
- Glucose (INT-100, Post-UVA): 17.24 mmol/L
- LDH (INT-100, Post-UVA): 11.5 LDH IU/10^11 platelets
- Lactate (INT-100, Post-UVA): 8.85 mmol/L
- Platelet counts (INT-100, Post-UVA): 1415 ×10^3 cells/μL
- Platelet lysis (INT-100, Post-UVA): 4.74%
- pCO2 at 37° C. (INT-100, Post-UVA): 91.4 mmHg
- pH at 37° C. (INT-100, Post-UVA): 6.89
- pO2 at 37° C. (INT-100, Post-UVA): 36.4 mmHg
- Adenosine triphosphate (ATP) (INT-100, Pre-UVA): 3.9 mmole/10^8 platelets
- LDH (INT-100, Pre-UVA): 10.3 LDH IU/10^11 platelets
- Platelet counts (INT-100, Pre-UVA): 1481 ×10^3 cells/μL
- Platelet lysis (INT-100, Pre-UVA): 4.30%
- pCO2 at 37° C. (INT-100, Pre-UVA): 101.1 mmHg
- pH at 37° C. (INT-100, Pre-UVA): 6.87
- pO2 at 37° C. (INT-100, Pre-UVA): 98.4 mmHg

From patent publication US12214092B2, “Systems and methods for treating biological fluids” (Cerus Corporation, priority 2017, dated 2025)
